“And” between values parts separate entries of the source, which are not always exact repeats. Equal entries are not always repeated.
Assays:
Type in all cases: biochemical
[1] = tested on: β-D-glucosidase (human lysosome); assay: Glycosidase inhibition (Table 2 panel); details: at 100 μM
[2] = biological target: T1, β-D-galactosidase (bovine liver) (Bos taurus, UniProt F1MNT6); assay: Glycosidase inhibition (Table 2 panel)
T1 sequence (F1MNT6 1-469): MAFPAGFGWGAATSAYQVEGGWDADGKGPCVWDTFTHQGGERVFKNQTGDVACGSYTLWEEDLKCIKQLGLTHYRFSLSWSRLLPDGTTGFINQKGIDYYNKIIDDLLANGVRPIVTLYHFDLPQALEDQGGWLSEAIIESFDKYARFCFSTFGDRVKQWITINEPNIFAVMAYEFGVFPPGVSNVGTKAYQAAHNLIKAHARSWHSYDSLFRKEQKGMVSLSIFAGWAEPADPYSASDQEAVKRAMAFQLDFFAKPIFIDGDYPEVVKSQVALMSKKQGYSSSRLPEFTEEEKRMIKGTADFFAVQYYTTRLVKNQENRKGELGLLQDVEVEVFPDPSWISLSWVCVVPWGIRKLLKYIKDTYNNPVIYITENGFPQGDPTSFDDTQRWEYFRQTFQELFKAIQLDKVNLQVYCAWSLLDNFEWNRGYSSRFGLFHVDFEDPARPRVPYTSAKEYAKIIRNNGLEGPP
Procedure, shortened: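 Chromogenic hydrolysis assay: each glycosidase acted on the appropriate para-nitrophenyl glycoside […] under its optimal pH. Addition of Na2CO3 […] ended the reaction before p-nitrophenol was measured at 400 nm.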

[3] = tested on: α-D-glucosidase (human lysosome); assay: Glycosidase inhibition (Table 2 panel); details: at 100 μM
[4] = tested on: β-D-glucanase (T. Longibrachiatum); assay: Glycosidase inhibition (Table 2 panel); details: at 100 μM
[5] = tested on: N-acetyl-β-D-hexosaminidase (rat intestine); assay: Glycosidase inhibition (Table 3 panel); details: 1 mg/mL aqueous solution; run in water
Description: (§1) All enzymes and para-nitrophenyl substrates were purchased from Sigma. Enzymes were assayed at 27 °C in citric acid (0.1 M)/disodium hydrogen phosphate (0.2 M) buffers at the optimum pH for the enzyme. The incubation mixture consisted of […] of 1 mg/mL aqueous solution of extract and […] of the appropriate […] para-nitrophenyl substrate made up in buffer at the optimum pH for the enzyme. The reactions were stopped by addition of […] 0.4 M glycine (pH 10.4) during the exponential phase of the reaction, which had been determined at the beginning using uninhibited assays in which water replaced the inhibitor. Final absorbances were read at 405 nm using a Versamax microplate reader (Molecular Devices, Wokingham, UK). Assays were carried out in triplicate, and the values given are means of the three replicates per assay. All reactions were run in water.

[6] = tested on: α-D-glucosidase (rat intestine); assay: Glycosidase inhibition (Table 3 panel); details: 1 mg/mL aqueous solution; run in water
Description: as §1

SMILES | inhibition % β-D-Glucosidase Human Lysosome [1] | inhibition at 100 µM [2] [%] | inhibition % α-D-Glucosidase Human Lysosome [3] | inhibition % β-D-Glucanase T. Longibrachiatum [4] | Percentage inhibition N-Acetyl-β-D-Hexosaminidase Rat Intestine [5] [%] | Percentage inhibition α-D-Glucosidase Rat Intestine [6] | inhibition at 1000 µM [2] [%]
OC[C@H](O)[C@@H]1[C@H](O)[C@H](O)CN1Cc1ccccc1B(O)O [ortho 4, N-(2-Methylphenylboronic acid)-1,4-dideoxy-1,4-imino-L-gulitol] | ^cNI ^d(0%) | 3.3 | ^cNI ^d(2.2%) | ^cNI ^d(0%) | −0.2 | 17.4% | –
OB(O)c1cccc(CN2C[C@@H](O)[C@H]3OC(O)[C@H](O)[C@H]32)c1 (stereo partly drawn) [meta 3, N-(3-Methylphenylboronic acid)-3,6-dideoxy-3,6-imino-D-gulofuranose] | ^cNI ^d(6.6%) | – | ^cNI ^d(3.5%) | ^cNI ^d(0%) | 8.7 | 12.1% and 8.9% | –
OC[C@H](O)[C@@H]1[C@H](O)[C@H](O)CN1Cc1cccc(B(O)O)c1 [meta 4, N-(3-Methylphenylboronic acid)-1,4-dideoxy-1,4-imino-L-gulitol] | ^cNI ^d(13.6%) | 24.6 | ^cNI ^d(7.2%) | ^cNI ^d(1.2%) | −2.2 | 41.1% | –
CC1(C)O[C@H]2O[C@H]3[C@@H]([C@H]2O1)N(Cc1ccccc1B1OC(C)(C)C(C)(C)O1)C[C@H]3O [ortho 2, N-(2-Methylphenylboronic acid pinacol ester)-3,6-dideoxy-3,6-imino-1,2-O-isopropylidene-α-D-gulofuranose] | ^cNI ^d(5.6%) | – | ^cNI ^d(3.3%) | ^cNI ^d(21%) | 13.8 | −6.7% | 21.8
OB(O)c1ccccc1CN1C[C@@H](O)[C@H]2OC(O)[C@H](O)[C@H]21 (stereo partly drawn) [ortho 3, N-(2-Methylphenylboronic acid)-3,6-dideoxy-3,6-imino-D-gulofuranose] | ^cNI ^d(0%) | – | ^cNI ^d(0.3%) | ^cNI ^d(0%) | 19.2 | −1.4% | –
CC1(C)O[C@H]2O[C@H]3[C@@H]([C@H]2O1)N(Cc1cccc(B2OC(C)(C)C(C)(C)O2)c1)C[C@H]3O [meta 2, N-(3-Methylphenylboronic acid pinacol ester)-3,6-dideoxy-3,6-imino-1,2-O-isopropylidene-α-D-gulofuranose] | ^cNI ^d(0%) | 2.2 | ^cNI ^d(3.9%) | ^cNI ^d(3.9%) | 11.5 | 16.8% | 41.8

Reference: publication PMC12655172, “Borylated 5-Membered Ring Iminosugars: Synthesis and Biological Evaluation for Glycosidase Inhibition and Anticancer Properties for Application in Boron Neutron Capture Therapy (BNCT)—Part 2” (Pharmaceuticals, 2025)
